Test results: US20180280321A1, “COMPOSITIONS AND METHODS THAT INHIBIT QUORUM SENSING” (The Office of Innovation Commercialization, priority 2015, published 2018)
“Also recorded” adds a separate entry of the source. Like-named read-outs stand apart in the source and are kept apart here.

How the values were obtained:
[1] = system: agr::P3 promoter; assay type: cell-based, S. aureus
[2] = system: S. aureus; assay type: cell-based; conditions: at concentrations that inhibit quorum sensing
[3] = system: RNAIII, psm α and hla transcription; assay type: cell-based, S. aureus
[4] = system: A549 cells; experiment: Eukaryotic cytotoxicity, XTT assay; assay type: cell-based, human; conditions: A549, 24-hour incubation, at concentrations required for agr-inhibition
Protocol: (§1) Sigma-Aldrich, St. Louis, Mo.) and phenazine methosulfate (PMS; Sigma-Aldrich, St. Louis, Mo.) were used to perform an XTT assay as previously described (Scuderio et al., 1988, Cancer Res. 48:4827-4833). After 24 hours, spent media was removed and fresh media containing the indicated drug concentrations or vehicle was added to the cells and incubated for an additional 24 hours. […] Cell viability was assessed by the metabolic reduction of tetrazolium measured at OD490. Data are presented as percent viable cells compared to vehicle control.

[5] = system: HEK293 cells; experiment: Eukaryotic cytotoxicity, XTT assay; assay type: cell-based, human; conditions: HEK293, 24-hour incubation, at concentrations required for agr-inhibition
Protocol: as §1

[6] = system: HepG2 cells; experiment: Eukaryotic cytotoxicity, XTT assay; assay type: cell-based, human; conditions: hepatocyte cell line (HepG2), 24-hour incubation, at concentrations required for agr-inhibition
Protocol: as §1

[7] = system: AgrC-WT isolate AH3469; assay type: cell-based, S. aureus
[8] = target: AgrAC and P2-FAM complex (Staphylococcus aureus, UniProt P0A0I7); assay type: binding, S. aureus; conditions: EMSA, 2 μM AgrAC
[9] = target: AgrAC binding to agr promoter DNA (P2-FAM) (Staphylococcus aureus, UniProt P0A0I7); design: species or system S. aureus; conditions: bead-based flow cytometry, biotinylated AgrAC on SA beads, P2-FAM 1.6 μM
[10] = target: AgrAC-C199S (Staphylococcus aureus, UniProt P0A0I7, C199S); assay type: binding, S. aureus; conditions: SPR, His-tagged AgrAC-C199S on NTA biosensor, 25° C.
[11] = system: agr::P3 promoter; assay type: cell-based; conditions: agr-I S. epidermidis AH3408, 5 μg/mL OHM, 24 hours
[12] = system: USA300 isolate LAC; assay type: in vivo, SKH1 mice; conditions: for bacterial burden at the site of infection: LAC infected, single OHM treatment
[13] = system: S. aureus LAC / LACΔagr in RAW 264.7 macrophages; assay type: cell-based, mouse; conditions: LAC pre-treated with 5 μg/mL OHM, RAW 264.7, MOI 1:1; vs vehicle
[14] = system: S. aureus LAC / LACΔagr in human PMNs; assay type: cell-based
[15] = system: human PMNs; assay type: cell-based; conditions: supernatant from OHM- versus vehicle-treated LAC, 5 μg/mL OHM, two hours
[16] = system: MRSA isolate LAC; assay type: in vivo, SKH1 mice; conditions: OHM injected subq near the site of infection four hours post-infection
[17] = system: MRSA isolate LAC; assay type: in vivo; conditions: STZ-treated diabetic C57BL/6 mice, OHM given along with 5×10^7 CFU LAC

O=C1c2cc(O)cc(O)c2C(=O)c2c(O)cc(CO)cc21 [OHM, 1,3,8-trihydroxy-6-(hydroxymethyl)anthracene-9,10-dione]
agr::P3 promoter activation (quorum sensing) ([1]; agr-I, agr-II, agr-III, agr-IV reporter strains, OHM 100 to 0.05 μM): inhibited quorum sensing by all four agr types
in vitro agr-I transcription inhibition activity ([1]; among polyhydroxyanthraquinones from Penicillium restrictum): most potent
bacterial growth (OD600) [2]: do not impact bacterial growth; also recorded: absence of bactericidal or bacteriostatic effects
transcription of RNAIII [3]: decreased transcription
transcription of alpha-hemolysin (hla) [3]: decreased transcription
cell viability (toxicity) [4]: non-toxic
cell viability (toxicity) [5]: non-toxic
cell viability (toxicity) [6]: non-toxic
agr-mediated Hla expression (lysis of rabbit RBCs) [7]: inhibited Hla expression
inhibition of AgrAC binding to agr promoter DNA [8]: dose-dependent inhibition
inhibition of AgrAC binding to agr promoter DNA [9]: dose-dependent inhibition
direct binding to immobilized AgrAC [10]: bound directly
agr activation (agr::P3 promoter) [11]: significantly inhibited
bacterial burden at the site of infection ([12]; day seven post-infection): reduced
bacterial burden at the site of infection ([12]; day three post-infection): reduced
differences between OHM and vehicle treated mice (abscesses and ulcers) ([12]; mouse, in vivo): no differences were observed
histological analysis of skin sections: abscess formation and ulceration ([12]; mouse, in vivo): overall reduction in abscess formation and ulceration
local Hla expression at the site of infection (western blot) ([12]; mouse, in vivo): decreased local Hla expression
local IL-1β in abscess tissue (multiplex) ([12]; mouse, in vivo): significant reductions
local IL-6 in abscess tissue (multiplex) ([12]; mouse, in vivo): significant reductions
local TNFα in abscess tissue (multiplex) ([12]; mouse, in vivo): significant reductions
transcription of il-1β in abscess tissue ([12]; mouse, in vivo): reduced transcription
transcription of il-6 in abscess tissue ([12]; mouse, in vivo): reduced transcription
transcription of nlrp3 in abscess tissue ([12]; mouse, in vivo): decreased transcription
transcription of tnfα in abscess tissue ([12]; mouse, in vivo): reduced transcription
morbidity (assessed by weight loss) ([12]; mouse, in vivo, 0.25 mg/kg): significantly inhibited
abscess formation ([12]; mouse, in vivo, sc, 0.25 mg/kg): significantly inhibited
ulcer (dermonecrosis) formation ([12]; mouse, in vivo, sc, 0.25 mg/kg): significantly inhibited
intracellular killing by mouse macrophages [13]: significantly increased intracellular killing
intracellular killing by human PMNs ([14]; LAC pre-treated with 5 μg/mL OHM, MOI 1:1, vs vehicle): significantly increased intracellular killing
opsonophagocytosis: total number and percent of bacteria phagocytosed ([14]; bacteria pre-treated with vehicle or OHM, human PMNs): equivalent
PMN survival in the presence of S. aureus supernatant [15]: significantly increased survival
abscess formation [16]: limits abscess formation
ulcer area (dermonecrosis) [16]: limits abscess formation and dermonecrosis
abscess formation [17]: limits abscess formation
ulcer formation (dermonecrosis) [17]: limits abscess formation and dermonecrosis
